According to patent publication US20210122739A1, “NOVEL SULFONAMIDE CARBOXAMIDE COMPOUNDS” (Inflazome Limited, priority 2017, published 2021):

Columns and labels:
NLRP3 [1] = molecular target: T1, NLRP3 (Homo sapiens, UniProt Q96P20); experiment: Human whole blood IL1β release assay; assay type: cell-based; set-up: Plate out 80 μl of whole blood containing 1 μg/ml of LPS; from tissue; host or cells: human whole blood from healthy donors, LPS-primed, nigericin-stimulated; settings: 1 μg/ml LPS, nigericin 10 μM, IL-1β by AlphaLisa, read-out: HWB IC50
T1 sequence (Q96P20 whole entry): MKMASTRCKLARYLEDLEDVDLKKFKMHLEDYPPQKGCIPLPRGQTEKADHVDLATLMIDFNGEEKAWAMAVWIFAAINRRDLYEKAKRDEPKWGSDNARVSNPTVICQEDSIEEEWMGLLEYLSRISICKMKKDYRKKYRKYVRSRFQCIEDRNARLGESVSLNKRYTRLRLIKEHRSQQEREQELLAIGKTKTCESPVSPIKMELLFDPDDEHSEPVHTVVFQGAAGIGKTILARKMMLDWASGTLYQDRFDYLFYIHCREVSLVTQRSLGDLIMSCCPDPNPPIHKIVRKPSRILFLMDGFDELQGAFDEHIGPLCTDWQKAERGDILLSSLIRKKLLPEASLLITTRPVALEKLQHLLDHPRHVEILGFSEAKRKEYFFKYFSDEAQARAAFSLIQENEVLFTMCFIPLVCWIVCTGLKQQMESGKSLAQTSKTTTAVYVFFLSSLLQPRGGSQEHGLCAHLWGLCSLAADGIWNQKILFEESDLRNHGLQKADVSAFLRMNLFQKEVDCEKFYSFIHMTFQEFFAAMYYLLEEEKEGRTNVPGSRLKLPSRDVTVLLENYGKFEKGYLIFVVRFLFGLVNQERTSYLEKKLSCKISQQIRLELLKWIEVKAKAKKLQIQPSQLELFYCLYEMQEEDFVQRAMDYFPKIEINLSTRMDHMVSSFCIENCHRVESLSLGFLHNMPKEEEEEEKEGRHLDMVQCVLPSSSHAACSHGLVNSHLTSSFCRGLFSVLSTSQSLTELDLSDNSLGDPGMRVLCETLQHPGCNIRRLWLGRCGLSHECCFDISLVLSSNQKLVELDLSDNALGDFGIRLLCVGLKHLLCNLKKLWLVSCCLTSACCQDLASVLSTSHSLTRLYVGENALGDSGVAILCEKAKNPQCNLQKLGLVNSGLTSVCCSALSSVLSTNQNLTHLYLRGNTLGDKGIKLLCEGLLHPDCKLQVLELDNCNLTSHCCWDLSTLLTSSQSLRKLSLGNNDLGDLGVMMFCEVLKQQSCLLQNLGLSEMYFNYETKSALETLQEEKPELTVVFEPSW
Method: For systemic delivery, the ability to inhibit NLRP3 when the compounds are present within the bloodstream is of great importance. For this reason, the NLRP3 inhibitory activity of a number of compounds in human whole blood was investigated in accordance with the following protocol.
Human whole blood in Li-heparin tubes was obtained from healthy donors from a volunteer donor panel. • 1. Plate out 80 μl of whole blood containing 1 μg/ml of LPS in 96-well, clear bottom cell culture plate (Corning #3585) • 2. Add 10 μl compound (8 points half-log dilution with 10 μM top dose) or vehicle (DMSO 0.1% FAC) to the appropriate wells • 3. Incubate for 3 hrs at 37° C., 5% CO2 • 4. Add 10 μl Nigericin (Sigma #N7143) (10 μM FAC) to all wells • 5. Incubate for 1 hr at 37° C., 5% CO2 • 6. At the end of the incubation period, spin plates at 300×g for 5 mins to pellet cells and remove 20 μl of supernatant and add to 96-well v-bottom plates for IL-1β analysis (note: these plates containing the supernatants can be stored at −80° C. to be analysed at a later date) • 7. IL-1β was measured according to the manufacturer protocol (Perkin Elmer-AlphaLisa IL-1 Kit AL220F-5000) • 8. IC50 data is fitted to anon-linear regression equation (log inhibitor vs response-variable slope 4-parameters)

[2] = PK protocol: pharmacokinetic parameters in male Sprague Dawley rats; assay type: in vivo; settings: plasma, rat; for Vd: read-out: Vdss
Method: Pharmacokinetic parameters were determined in male Sprague Dawley rats (Charles River, UK, 250-350 g; or Vital River Laboratory Animal Technology Co Ltd, Beijing, China, 7-9 weeks old). Animals were individually housed during the study and maintained under a 12 h light/dark cycle. Animals had free access to food and water except that some orally dosed animals were food deprived overnight prior to the study.
For intravenous administration, compounds were formulated as a solution in water or DMSO:PBS [10:90] in 2 mL/kg dosing volume and administered via tail vein. For oral administration, compounds were formulated as a solution in water or DMSO:water [10:90] in 5 mL/kg dosing volume and administered orally.
Serial blood samples (about 120-300 μL) were taken from each animal at each of 8 time-points post dose (0.083, 0.25, 0.5, 1, 2, 4, 8 and 24 h) or at each of 12 time-points post dose (0.03, 0.1, 0.17, 0.25, 0.5, 1, 2, 4, 6, 8, 12 and 24 h) or pre-dose and at each of 9 time-points post dose (0.25, 0.5, 1, 2, 4, 6, 8, 12 and 24 h). Samples were held on ice for no longer than 30 minutes before centrifugation (10,000 rpm (8,385 g) for 3 minutes; or 5,696 rpm (3,000 g) for 15 minutes) for plasma generation. Plasma was frozen on dry ice prior to bioanalysis. PK parameters were generated from LC-MS/MS data using Dotmatics or Phoenix WinNonlin 6.3 software.

NLRP3 [3] = molecular target: T1, NLRP3; experiment: THP-1 cells pyroptosis assay; assay type: cell-based; set-up: Seed THP-1 cells (25,000 cells/well) containing 1.0 μg/ml LPS; host or cells: THP-1 cells, LPS-primed, nigericin-stimulated; settings: 1.0 μg/ml LPS, nigericin 5 μM, resazurin readout
Summary of the method: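 THP-1 cells (25,000/well, serum-free RPMI) primed with 1 μg/ml LPS were given compound (8-point half-log series, top 10 μM; 0.1% DMSO) for 3 h at 37 °C, then 5 μM nigericin for 1 h. Viability read by 100 μM resazurin fluorescence (Ex 560/Em 590) after 1–2 h; IC50 from four-parameter nonlinear regression.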

[4] = intravenous administration, dose per compound in Dose column (0.83-5.05 mg/kg)
[5] = oral administration, dose per compound in Dose column (3 or 5 mg/kg)

IC50 (NLRP3 [1]) [nM]	AUC [2, 4] [ng·h/mL]	clearance [2, 4] [mL/min/kg]	half-life [2, 4] [h]	Vd [2, 4] [L/kg]	IC50 (NLRP3 [3]) [nM]	AUC [2, 5] [ng·h/mL]	CL/F [2, 5] [mL/min/kg]	Cmax [2, 5] [ng/mL]	Tmax [2, 5] [h]	bioavailability [2, 5] [%]	half-life [2, 5] [h]	Structure (SMILES)
< 400	334	48.7	0.5	0.99	160 to 640	–	–	–	–	–	–	CC(C)c1cccc(C(C)C)c1NC(=O)NS(=O)(=O)c1cc(C(=O)N(C)C)n(C)n1 [Example 67, 3-(N-((2,6-Diisopropylphenyl)carbamoyl)sulfamoyl)-N,N,1-trimethyl-1H-pyrazole-5-carboxamide]
< 400	3390	24.8	25.3	17.8	40 to 160	1050	49.5	600	0.25	62	3.4	CN(C)C(=O)c1cc(S(=O)(=O)NC(=O)Nc2c3c(cc4c2CCC4)CCC3)nn1C [Example 69, 3-(N-((1,2,3,5,6,7-Hexahydro-s-indacen-4-yl)carbamoyl)sulfamoyl)-N,N,1-trimethyl-1H-pyrazole-5-carboxamide]
< 400	415	40.3	6.4	7.96	40 to 160	–	–	–	–	–	–	CC(C)c1cc(F)cc(C(C)C)c1NC(=O)NS(=O)(=O)c1cc(C(=O)N2CCC2)n(C)n1 [Example 45, 5-(Azetidine-1-carbonyl)-N-((4-fluoro-2,6-diisopropylphenyl)carbamoyl)-1-methyl-1H-pyrazole-3-sulfonamide]
1600 to 3200	353	161	1.3	10.6	40 to 160	–	–	–	–	–	–	CC(C)c1cc(Cl)cc(C(C)C)c1NC(=O)NS(=O)(=O)c1cc(C(=O)N(C)C)n(C)n1 [Example 68, 3-(N-((4-Chloro-2,6-diisopropylphenyl)carbamoyl)sulfamoyl)-N,N,1-trimethyl-1H-pyrazole-5-carboxamide]
400 to 800	–	–	–	–	40 to 160	–	21.5	–	0.08	67	4.9	COCCN(C)C(=O)c1cc(S(=O)(=O)NC(=O)Nc2c3c(cc4c2CCC4)CCC3)nn1C [Example 27, 3-(N-((1,2,3,5,6,7-Hexahydro-s-indacen-4-yl)carbamoyl)sulfamoyl)-N-(2-methoxyethyl)-N,1-dimethyl-1H-pyrazole-5-carboxamide]
800 to 1600	303	55.3	1.6	1.66	40 to 160	–	–	–	–	–	–	CC(C)n1nc(S(=O)(=O)NC(=O)Nc2c3c(cc4c2CCC4)CCC3)cc1C(=O)N1CCC1 [Example 31, 5-(Azetidine-1-carbonyl)-N-((1,2,3,5,6,7-hexahydro-s-indacen-4-yl)carbamoyl)-1-isopropyl-1H-pyrazole-3-sulfonamide]
400 to 800	1720	25	0.1	0.24	40 to 160	–	–	–	–	–	–	CCN(C)C(=O)c1cc(S(=O)(=O)NC(=O)Nc2c3c(cc4c2CCC4)CCC3)nn1C [Example 62, N-Ethyl-3-(N-((1,2,3,5,6,7-hexahydro-s-indacen-4-yl)carbamoyl)sulfamoyl)-N,1-dimethyl-1H-pyrazole-5-carboxamide]
< 400	283	59.2	3.3	4.08	160 to 640	770	110	495	0.17	54.3	9.7	CC(C)c1cc(F)cc(C(C)C)c1NC(=O)NS(=O)(=O)c1cc(C(=O)N(C)C)n(C)n1 [Example 60, 3-(N-((4-Fluoro-2,6-diisopropylphenyl)carbamoyl)sulfamoyl)-N,N,1-trimethyl-1H-pyrazole-5-carboxamide]
800 to 1600	–	–	–	–	160 to 640	–	–	–	–	–	–	CCN(CCO)C(=O)c1cc(S(=O)(=O)NC(=O)Nc2c3c(cc4c2CCC4)CCC3)nn1C [Example 20, N-Ethyl-3-(N-((1,2,3,5,6,7-hexahydro-s-indacen-4-yl)carbamoyl)sulfamoyl)-N-(2-hydroxyethyl)-1-methyl-1H-pyrazole-5-carboxamide]
400 to 800	–	–	–	–	160 to 640	–	–	–	–	–	–	CC(C)c1cccc(C(C)C)c1NC(=O)NS(=O)(=O)c1cc(C(=O)N(C)C(C)C)n(C)n1 [Example 58, 3-(N-((2,6-Diisopropylphenyl)carbamoyl)sulfamoyl)-N-isopropyl-N,1-dimethyl-1H-pyrazole-5-carboxamide]
1600 to 3200	–	–	–	–	160 to 640	–	–	–	–	–	–	CC(C)Oc1cc(-c2cc(F)cc(C(C)C)c2NC(=O)NS(=O)(=O)c2cc(C(=O)N(C)C)n(C)n2)ccn1 [Example 81, 3-(N-((4-Fluoro-2-(2-isopropoxypyridin-4-yl)-6-isopropyl-phenyl)carbamoyl)sulfamoyl)-N,N,1-trimethyl-1H-pyrazole-5-carboxamide]
3200 to 10000	–	–	–	–	160 to 640	–	–	–	–	–	–	CN(C(=O)c1cc(S(=O)(=O)NC(=O)Nc2c3c(cc4c2CCC4)CCC3)nn1C)C1CCC1 [Example 7, N-Cyclobutyl-3-(N-((1,2,3,5,6,7-hexahydro-s-indacen-4-yl)carbamoyl)sulfamoyl)-N,1-dimethyl-1H-pyrazole-5-carboxamide]
3200 to 10000	–	–	–	–	160 to 640	–	–	–	–	–	–	CC(C)c1ccc(C(C)C)c(NC(=O)NS(=O)(=O)c2cc(C(=O)N(C)C)n(C)n2)c1 [Example 44, 3-(N-((2,5-Diisopropylphenyl)carbamoyl)sulfamoyl)-N,N,1-trimethyl-1H-pyrazole-5-carboxamide]
